# Data from patent US8021694B2, “Acidified chlorite disinfectant compositions with olefin stabilizers” (Ecolab USA Inc., priority 2001, dated 2011).
# Tests used:
# Type in all cases: physicochemical
# [1] = Rate of color fading at 35° C. of mixed acidified chlorite product, UV/Vis spectroscopy at 425 nm; conditions: for Initial Color Intensity Remaining, Time After Mixing 1 hour: 1 hour after mixing; for Initial Color Intensity Remaining, Time After Mixing 2 hour: 2 hour after mixing; for Initial Color Intensity Remaining, Time After Mixing 3 hour: 3 hour after mixing; for Initial Color Intensity Remaining, Time After Mixing 4 hour: 4 hour after mixing
# Experimental: (§1) The rate of color fading at 35° C. was quantified by UV/Vis spectroscopy at 425 nm.
# as §1
# [2] = Rate of chlorine dioxide generation in mixed acidified chlorite product, UV/Vis spectroscopy at 360 nm; conditions: olefin 0.0225M in mixed product, 1.32% lactic acid, 0.32% sodium chlorite, pH 2.75; for Chlorine Dioxide, Time After Mixing 1 hour: 1 hour after mixing; for Chlorine Dioxide, Time After Mixing 2 hour: 2 hour after mixing; for Chlorine Dioxide, Time After Mixing 3 hour: 3 hour after mixing; for Chlorine Dioxide, Time After Mixing 4 hour: 4 hour after mixing; for Chlorine Dioxide, Time After Mixing 5 hour: 5 hour after mixing
# Experimental: A series of two-part acidified chlorite products were prepared that when combined 1:1 produced compositions containing 1.32% lactic acid, 0.32% sodium chlorite, an olefin compound formulated at a 0.0225M, and sufficient quantities of sodium hydroxide to produce a mixed product pH of 2.75. The rate of chlorine dioxide generation was determined by UV/Vis spectroscopy at 360 nm (54.31 ppm/A.U. cm).
# [3] = Rate of sodium chlorite consumption, standard iodometric titration; conditions: olefin compound at 1.4%
# Source text: The rate of sodium chlorite consumption was quantified using a standard iodometric titration method.
# [4] = olefin 0.045M in acid part (0.0225M mixed), FD&C Yellow #5, pH 2.75
# [5] = component at 0.4%, mixed product pH 2.75
Compound,"Initial Color Intensity Remaining, Time After Mixing 1 hour [1, 4]","Initial Color Intensity Remaining, Time After Mixing 2 hour [1, 4]","Initial Color Intensity Remaining, Time After Mixing 3 hour [1, 4]","Initial Color Intensity Remaining, Time After Mixing 4 hour [1, 4]","Initial Color Intensity Remaining, Time After Mixing ½ hour [1, 4]","Chlorine Dioxide, Time After Mixing 1 hour [2] [ppm]","Chlorine Dioxide, Time After Mixing 2 hour [2] [ppm]","Chlorine Dioxide, Time After Mixing 3 hour [2] [ppm]","Chlorine Dioxide, Time After Mixing 4 hour [2] [ppm]","Chlorine Dioxide, Time After Mixing 5 hour [2] [ppm]",further results
CCCCCCCC/C=C\CCCCCCCC(=O)NCCOC(=O)C(CC(=O)[O-])S(=O)(=O)[O-].[Na+].[Na+] (centres unmarked) [Disodium oleamido MEA sulfosuccinate],** (>50% of Initial Color Intensity Remaining),** (>50% of Initial Color Intensity Remaining),** (>50% of Initial Color Intensity Remaining),** (>50% of Initial Color Intensity Remaining),** (>50% of Initial Color Intensity Remaining),,,,,,
CCCCCCCC/C=C\CCCCCCCC(=O)NCCC[N+](C)(C)CC(=O)[O-] [Oleamidopropyl betaine],** (>50% of Initial Color Intensity Remaining),** (>50% of Initial Color Intensity Remaining),** (>50% of Initial Color Intensity Remaining),** (>50% of Initial Color Intensity Remaining),** (>50% of Initial Color Intensity Remaining),,,,,,
Oleth-10,** (>50% of Initial Color Intensity Remaining),** (>50% of Initial Color Intensity Remaining),** (>50% of Initial Color Intensity Remaining),** (>50% of Initial Color Intensity Remaining),** (>50% of Initial Color Intensity Remaining),10,16,21,25,28,
Oleth-10 phosphate,** (>50% of Initial Color Intensity Remaining),** (>50% of Initial Color Intensity Remaining),** (>50% of Initial Color Intensity Remaining),** (>50% of Initial Color Intensity Remaining),** (>50% of Initial Color Intensity Remaining),7,14,17,21,25,
CCCCCCCC/C=C\CCCCCCCC[N+](C)(CCO)CCO.[Cl-] [oleylmethylbis(hydroxyethyl)ammonium chloride],** (>50% of Initial Color Intensity Remaining),** (>50% of Initial Color Intensity Remaining),** (>50% of Initial Color Intensity Remaining),** (>50% of Initial Color Intensity Remaining),** (>50% of Initial Color Intensity Remaining),,,,,,
"CCCCCCCC/C=C\CCCCCCCC(=O)N(C)CCS(=O)(=O)[O-].[Na+] [Sodium N-methyl oleoyl taurate, sodium N-methyl oleoyl taurate]",** (>50% of Initial Color Intensity Remaining),** (>50% of Initial Color Intensity Remaining),** (>50% of Initial Color Intensity Remaining),** (>50% of Initial Color Intensity Remaining),** (>50% of Initial Color Intensity Remaining),4,5,5,6,7,"Initial NaClO2 Level remaining, Time After Mixing 1 hour ([3]; 1 hour after mixing, pH 2.75 when mixed 1:1): ** (>50% Initial NaClO2 Level); Initial NaClO2 Level remaining, Time After Mixing 2 hour ([3]; 2 hour after mixing, pH 2.75 when mixed 1:1): ** (>50% Initial NaClO2 Level); Initial NaClO2 Level remaining, Time After Mixing 3 hour ([3]; 3 hour after mixing, pH 2.75 when mixed 1:1): ** (>50% Initial NaClO2 Level); Initial NaClO2 Level remaining, Time After Mixing 4 hour ([3]; 4 hour after mixing, pH 2.75 when mixed 1:1): ** (>50% Initial NaClO2 Level); Initial NaClO2 Level remaining, Time After Mixing 5 hour ([3]; 5 hour after mixing, pH 2.75 when mixed 1:1): ** (>50% Initial NaClO2 Level); Rate of sodium chlorite consumption ([3]; equal weight-base comparison, in words): stronger effect than alpha olefin sulfonate; Initial Color Intensity Remaining, Time After Mixing 1 hour [1, 5]: ** (>50% of Initial Color Intensity Remaining); Initial Color Intensity Remaining, Time After Mixing 2 hour [1, 5]: ** (>50% of Initial Color Intensity Remaining); Initial Color Intensity Remaining, Time After Mixing 3 hour [1, 5]: ** (>50% of Initial Color Intensity Remaining); Extension of colorant intensity ([1]; component at 0.4%, in words): extended the colorant intensity longer; Initial Color Intensity Remaining, Time After Mixing ½ hour [1, 5]: ** (>50% of Initial Color Intensity Remaining)"
